{"source": "patent US20210254173A1", "about": "“PREDICTIVE 7-GENE ASSAY AND PROGNOSTIC PROTEIN BIOMARKER FOR NON-SMALL CELL LUNG CANCER” (West Virginia University, priority 2018, published 2021)", "type_in_all_cases": "in vivo, human", "key": {"SLC39A8": {"test_system": "SLC39A8", "experiment": "Chemoresponse prediction: Cox proportional hazard model using SLC39A8 ΔCt values in qRT-PCR assays of NSCLC patients", "conditions": "prediction by high SLC39A8 expression", "protocol": "(§1) Patient samples. All NSCLC patients were staged I, II, or IIIA at the time of diagnosis. Tumor tissues were collected in surgical resections and were snap-frozen at −80° C. until used for RNA extraction. Tumor cell content was above 50% for qRT-PCR assays. Those with missing AJCC staging information, missing histology, death within 30 days of resection or from other disease conditions were excluded from further analysis. A total of 122 NSCLC patient samples were obtained from Case Western Reserve University (CWRU) Comprehensive Cancer Center. […] The tissue collection in this study was approved by an Institutional Review Board (IRB) at each institution.\nRNA extraction, and quality and concentration assessments. […] The quality and integrity of the RNA, the 28S to 18S ratio, and a visual image of the 28S and 18S bands were evaluated on the 2100 Bioanalyzer (Agilent Technologies, CA). […] The RNA concentration of each sample was assessed using a Nanodrop-1000 Spectrophotometer (NanoDrop Tech, Germany). […]\n(§2) Real-time quantitative RT-PCR low-density arrays. […]\n(§3) Three hundred thirty seven (337) tumor samples were analyzed with good RNA quality using TaqMan microfluidic low-density array (LDA) plates on an ABI 7900HT Fast RT-PCR instrument (Applied Biosystems)."}, "FUT7": {"test_system": "FUT7", "experiment": "Chemoresponse prediction: Cox proportional hazard model using FUT7 ΔCt values in qRT-PCR assays of NSCLC patients", "protocol": "Patient samples. All NSCLC patients were staged I, II, or IIIA at the time of diagnosis. Tumor tissues were collected in surgical resections and were snap-frozen at −80° C. until used for RNA extraction. Tumor cell content was above 50% for qRT-PCR assays. Those with missing AJCC staging information, missing histology, death within 30 days of resection or from other disease conditions were excluded from further analysis. A total of 122 NSCLC patient samples were obtained from Case Western Reserve University (CWRU) Comprehensive Cancer Center. Total RNA of good quality was extracted from 89 tumor specimens. […]\nRNA extraction, and quality and concentration assessments. […] The quality and integrity of the RNA, the 28S to 18S ratio, and a visual image of the 28S and 18S bands were evaluated on the 2100 Bioanalyzer (Agilent Technologies, CA). RNA assessed as having good quality from […] tumor samples was included for further analysis. The RNA concentration of each sample was assessed using a Nanodrop-1000 Spectrophotometer (NanoDrop Tech, Germany). […]\nas §2\nThree hundred thirty seven (337) tumor samples were analyzed with good RNA quality using TaqMan microfluidic low-density array (LDA) plates on an ABI 7900HT Fast RT-PCR instrument (Applied Biosystems). Total RNA samples were analyzed on an Agilent 2100 Bioanalyzer RNA 6000 Nano LabChip. […]"}, "ABCC4": {"test_system": "ABCC4", "experiment": "Chemoresponse prediction: Cox proportional hazard model using ABCC4 ΔCt values in qRT-PCR assays of NSCLC patients", "protocol": "as §1\nRNA extraction, and quality and concentration assessments. Total RNA was extracted from snap-frozen tumor tissues using a RNeasy mini kit according the manufacturer's protocol (Qiagen, USA), followed by elution in 30 μl of RNase-free water and storage at −80° C. The quality and integrity of the RNA, the 28S to 18S ratio, and a visual image of the 28S and 18S bands were evaluated on the 2100 Bioanalyzer (Agilent Technologies, CA). […] The RNA concentration of each sample was assessed using a Nanodrop-1000 Spectrophotometer (NanoDrop Tech, Germany).\nGeneration of complementary DNA (cDNA). The reverse transcriptase polymerase chain reaction was used to convert the high-quality single-stranded RNA samples to double-stranded cDNA, using an Applied Biosystems GeneAmp® PCR 9700 machine (Foster City, Calif.). For standardization across all samples, one microgram of RNA was used to generate cDNA.\nReal-time quantitative RT-PCR low-density arrays. Real-time qRT-PCR assays of independent patient cohorts of NSCLC tumor samples were used to further select biomarkers to form a multi-gene assay from prognostic genes identified from microarray data in our previous studies.\nas §3"}, "[1]": {"conditions": "ABCC4 ΔCt as covariate, Cox model, NSCLC patients treated with the named agent(s)"}}, "data": [{"smiles": "Nc1nc2[nH]cc(CCc3ccc(C(=O)N[C@@H](CCC(=O)O)C(=O)O)cc3)c2c(=O)[nH]1", "note": "[Alimta, pemetrexed]", "values": [{"measurement": "Chemosensitive/resistant", "setting": "SLC39A8", "result": "Chemoresistant"}]}, {"smiles": "N.N.O=C([O-])C1(C(=O)[O-])CCC1.[Pt+2]", "note": "[Carboplatin, carboplatin]", "values": [{"measurement": "Hazard ratio of death from disease with 95% CI", "setting": "FUT7; FUT7 ΔCt as covariate, Cox model, NSCLC patients treated with the named agent", "result": 1.605}, {"measurement": "Chemosensitive/resistant", "setting": "FUT7; prediction by high FUT7 expression", "result": "Chemosensitive"}]}, {"smiles": "CC(=O)O[C@H]1C(=O)[C@@]2(C)[C@H]([C@H](OC(=O)c3ccccc3)[C@]3(O)C[C@H](OC(=O)[C@H](O)[C@@H](NC(=O)c4ccccc4)c4ccccc4)C(C)=C1C3(C)C)[C@]1(OC(C)=O)CO[C@@H]1C[C@@H]2O", "note": "[Taxol, paclitaxel]", "values": [{"measurement": "Hazard ratio of death from disease with 95% CI", "setting": "ABCC4; [1]", "result": 0.403}, {"measurement": "Hazard ratio of recurrence with 95% CI", "setting": "ABCC4; [1]", "result": 0.48}, {"measurement": "Chemosensitive/resistant", "setting": "ABCC4; prediction by high ABCC4 expression, patients treated with the named agent(s)", "result": "Chemoresistant"}, {"measurement": "Chemosensitive/resistant", "setting": "SLC39A8", "result": "Chemoresistant"}]}]}
